Values quoted from earlier work, collected in patent US11766411B2, “Use of cannabinoids in the treatment of epilepsy” (GW Research Limited, priority 2014, dated 2023).

Conditions: Consroe et al., 1977; cited from earlier work

For CCCCCc1cc(O)c2c(c1)OC(C)(C)[C@@H]1CCC(C)=C[C@@H]21 [THC, Tetrahydrocannabinol], the effect on convulsions is listed as “pro-convulsant”.
